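Interpolation was linear, between the two tested concentrations surrounding the appropriate level; five concentrations were tested over 48 hours in 96-well plates. GI50: concentration for 50% inhibition of growth.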 Active and inactive are the calls of the source. No stated cut-off is given here; in the data, active = GI50 up to about 1.1 µM and inactive = higher.
Columns and labels:
Experiment in all cases: DTP human tumour cell line panel, 48 h
[1] = system: A498
[2] = system: A549
[3] = system: CAKI-1
[4] = system: CCRF-CEM
[5] = system: DU-145
[6] = system: HCT-15
[7] = system: HOP-62
[8] = system: HOP-92
[9] = system: MDA-N
[10] = system: OVCAR-5
[11] = system: PC-3
[12] = system: SK-MEL-28
[13] = system: SNB-19
[14] = system: SNB-75
[15] = system: SR
[16] = system: SW-620
[17] = system: OVCAR-3
[18] = system: BT-549
[19] = system: OVCAR-4

N#Cc1nc(-c2cnccn2)oc1N
GI50 [1]: > 100 µM (inactive) | GI50 [2]: > 100 µM (inactive) | GI50 [3]: > 100 µM (inactive) | GI50 [4]: > 100 µM (inactive) | GI50 [5]: > 100 µM (inactive) | GI50 [6]: > 100 µM | GI50 [7]: > 100 µM (inactive) | GI50 [8]: > 100 µM (inactive) | GI50 [9]: > 100 µM (inactive) | GI50 [10]: > 100 µM (inactive) | GI50 [11]: > 100 µM (inactive) | GI50 [12]: > 100 µM (inactive) | GI50 [13]: > 100 µM (inactive) | GI50 [14]: > 100 µM (inactive) | GI50 [15]: > 100 µM (inactive) | GI50 [16]: > 100 µM (inactive)

COCCN(C(=O)c1ccccc1)C1CCC2(SCCS2)c2[nH]c3ccccc3c21 (stereo not drawn)
GI50 [1]: 45.7 µM (inactive) | GI50 [2]: 26.2 µM (inactive) | GI50 [3]: 79.6 µM (inactive) | GI50 [4]: 29.8 µM (inactive) | GI50 [5]: > 100 µM (inactive) | GI50 [6]: 28.8 µM | GI50 [7]: > 100 µM (inactive) | GI50 [8]: 20.1 µM (inactive) | GI50 [17]: 51.2 µM (inactive) | GI50 [10]: > 100 µM (inactive) | GI50 [11]: 20 µM (inactive) | GI50 [12]: 74 µM (inactive) | GI50 [13]: 89.5 µM (inactive) | GI50 [14]: 70.1 µM (inactive) | GI50 [15]: 29.7 µM (inactive) | GI50 [16]: 33.3 µM (inactive)

CN(C(=O)c1ccc(Cl)cc1)C(=S)N1CCN(c2ccccc2)CC1
GI50 [2]: 89.1 µM (inactive) | GI50 [18]: > 100 µM (inactive) | GI50 [4]: 56.6 µM (inactive) | GI50 [5]: > 100 µM (inactive) | GI50 [6]: 87.5 µM | GI50 [8]: 89.5 µM (inactive) | GI50 [9]: > 100 µM (inactive) | GI50 [17]: > 100 µM (inactive) | GI50 [19]: > 100 µM (inactive) | GI50 [10]: > 100 µM (inactive) | GI50 [12]: > 100 µM (inactive) | GI50 [13]: > 100 µM (inactive) | GI50 [14]: 46.7 µM (inactive) | GI50 [15]: 35.2 µM (inactive) | GI50 [16]: > 100 µM (inactive)

COc1ccc(-c2nc3ncccn3c2-c2ccc(SC)cc2)cc1
GI50 [2]: 2.88 µM (inactive) | GI50 [18]: 1.45 µM (inactive) | GI50 [3]: 0.74 µM (active) | GI50 [4]: 2.28 µM (inactive) | GI50 [6]: 1.51 µM | GI50 [7]: 5.64 µM (inactive) | GI50 [8]: 7.18 µM (inactive) | GI50 [9]: 0.237 µM (active) | GI50 [17]: 0.44 µM (active) | GI50 [19]: 8.69 µM (inactive) | GI50 [10]: 2.42 µM (inactive) | GI50 [11]: 3.13 µM (inactive) | GI50 [12]: 16.9 µM (inactive) | GI50 [13]: 1.19 µM (inactive) | GI50 [14]: 5.96 µM (inactive) | GI50 [15]: 0.507 µM (active) | GI50 [16]: 1.48 µM (inactive)

CC(C)n1c(=O)c2nn3c(=O)n(C(C)C)c(=O)c3nn2c1=O
GI50 [1]: > 100 µM (inactive) | GI50 [2]: > 100 µM (inactive) | GI50 [3]: > 100 µM (inactive) | GI50 [4]: > 100 µM (inactive) | GI50 [5]: > 100 µM (inactive) | GI50 [6]: > 100 µM | GI50 [7]: > 100 µM (inactive) | GI50 [8]: > 100 µM (inactive) | GI50 [9]: > 100 µM (inactive) | GI50 [17]: > 100 µM (inactive) | GI50 [19]: > 100 µM (inactive) | GI50 [10]: > 100 µM (inactive) | GI50 [11]: > 100 µM (inactive) | GI50 [12]: > 100 µM (inactive) | GI50 [13]: > 100 µM (inactive) | GI50 [15]: > 100 µM (inactive) | GI50 [16]: > 100 µM (inactive)

CN1CCN([C@H]2C[C@H]3[C@@H]4CC=C5C[C@@H](O)CC[C@]5(C)[C@H]4CC[C@]3(C)C2=O)CC1
GI50 [1]: > 100 µM (inactive) | GI50 [2]: > 100 µM (inactive) | GI50 [18]: > 100 µM (inactive) | GI50 [3]: > 100 µM (inactive) | GI50 [4]: > 100 µM (inactive) | GI50 [6]: > 100 µM | GI50 [7]: > 100 µM (inactive) | GI50 [8]: > 100 µM (inactive) | GI50 [9]: > 100 µM (inactive) | GI50 [17]: > 100 µM (inactive) | GI50 [19]: > 100 µM (inactive) | GI50 [10]: > 100 µM (inactive) | GI50 [11]: > 100 µM (inactive) | GI50 [12]: > 100 µM (inactive) | GI50 [13]: > 100 µM (inactive) | GI50 [14]: > 100 µM (inactive) | GI50 [15]: 29.4 µM (inactive) | GI50 [16]: > 100 µM (inactive)

COc1ccc(C2=C(OC(C)=O)c3cccn3-c3ccc(Cl)cc3S2)cc1
GI50 [2]: 5.51 µM (inactive) | GI50 [3]: 7.19 µM (inactive) | GI50 [4]: 3.43 µM (inactive) | GI50 [5]: 9.66 µM (inactive) | GI50 [6]: 3.62 µM | GI50 [7]: 3.97 µM (inactive) | GI50 [8]: 1.3 µM (inactive) | GI50 [9]: 2.13 µM (inactive) | GI50 [19]: 6.22 µM (inactive) | GI50 [11]: 4.69 µM (inactive) | GI50 [12]: 4.75 µM (inactive) | GI50 [14]: 3.44 µM (inactive) | GI50 [15]: 2.33 µM (inactive) | GI50 [16]: 4.06 µM (inactive)

Cc1[nH]n(-c2nc3c(c(=O)[nH]2)CCCC3)c(=O)c1CCO
GI50 [1]: > 100 µM (inactive) | GI50 [2]: > 100 µM (inactive) | GI50 [3]: 60 µM (inactive) | GI50 [4]: > 100 µM (inactive) | GI50 [5]: > 100 µM (inactive) | GI50 [6]: > 100 µM | GI50 [7]: > 100 µM (inactive) | GI50 [9]: > 100 µM (inactive) | GI50 [17]: > 100 µM (inactive) | GI50 [19]: > 100 µM (inactive) | GI50 [10]: > 100 µM (inactive) | GI50 [11]: > 100 µM (inactive) | GI50 [12]: > 100 µM (inactive) | GI50 [13]: > 100 µM (inactive) | GI50 [16]: > 100 µM (inactive)
